Results reported in paper PMC9377102, “Toxicity and toxicokinetics of the ethanol extract of Zuojin formula” (BMC Complementary Medicine and Therapies, 2022).

How the values were obtained:
[1] = Toxicokinetics test in the satellite groups (UPLC-MS/MS of rat plasma); format: in vivo
Description: SD rats (5 ~ 6 weeks, 3/group/sex) were randomly allocated to three treatment groups and given the same dosage as those in the repeated toxicity experiment for 28 days. […] Carbamazepine was chosen as the internal standard (IS). The blood samples were centrifuged to obtain plasma. Then, 300 μL of acetonitrile containing 40 ng of IS was added to 100 μL of plasma. After vortexing for 1 min, the mixture was centrifuged at 17,000 rpm for 15 min at 4 °C. The supernatant of each sample was injected into a UPLC–MS/MS system for determination. The injection volume was 1 μL. UPLC–MS analysis was performed on a Thermo Fisher Scientific Ultimate 3000 UPLC system (San Jose, USA) and an API 4000 QTRAP mass spectrometer (Foster City, USA) equipped with an ESI source. The mobile phase consisted of 2 solvents: (A) water containing 0.1% formic acid and (B) 100% acetonitrile. For MS, multiple reaction monitoring (MRM) in positive ion mode was used as the scanning mode for the main components and IS in the plasma samples. The dwell time (DT), collision energy (CE), quadrupole 1 pre-rod bias (Q1) and quadrupole 3 pre-rod bias (Q3) are listed in Table 3.

[2] = test system: CYP3A4, CYP1A2 and CYP2D6; settings: cited from earlier work
[3] = test system: CYP3A4, CYP1A2 and CYP2D6; settings: cited from earlier work; remark: listed apart in the source
[4] = female rats, Day 1, high dose TAZF 3.7 g/kg by gavage
[5] = female rats, Day 1, highest dose (berberine 72.08, epiberberine 7.42, coptisine 7.42, palmatine 18.26, jatrorrhizine 2.80, columbamine 5.93 mg/kg)
[6] = female rats, Day 1, low dose TAZF 0.4 g/kg by gavage
[7] = female rats, Day 1, lowest dose (berberine 8.01, epiberberine 0.82, coptisine 1.38, palmatine 2.03, jatrorrhizine 0.31, columbamine 0.66 mg/kg)
[8] = female rats, Day 1, middle dose (berberine 24.03, epiberberine 2.47, coptisine 2.47, palmatine 6.09, jatrorrhizine 0.93, columbamine 1.98 mg/kg)
[9] = female rats, Day 28, high dose TAZF 3.7 g/kg by gavage
[10] = female rats, Day 28, highest dose (berberine 72.08, epiberberine 7.42, coptisine 7.42, palmatine 18.26, jatrorrhizine 2.80, columbamine 5.93 mg/kg)
[11] = female rats, Day 28, low dose TAZF 0.4 g/kg by gavage
[12] = female rats, Day 28, lowest dose (berberine 8.01, epiberberine 0.82, coptisine 1.38, palmatine 2.03, jatrorrhizine 0.31, columbamine 0.66 mg/kg)
[13] = female rats, Day 28, middle dose (berberine 24.03, epiberberine 2.47, coptisine 2.47, palmatine 6.09, jatrorrhizine 0.93, columbamine 1.98 mg/kg)
[14] = male rats, Day 1, high dose TAZF 3.7 g/kg by gavage
[15] = male rats, Day 1, highest dose (berberine 72.08, epiberberine 7.42, coptisine 7.42, palmatine 18.26, jatrorrhizine 2.80, columbamine 5.93 mg/kg)
[16] = male rats, Day 1, low dose TAZF 0.4 g/kg by gavage
[17] = male rats, Day 1, lowest dose (berberine 8.01, epiberberine 0.82, coptisine 1.38, palmatine 2.03, jatrorrhizine 0.31, columbamine 0.66 mg/kg)
[18] = male rats, Day 1, middle dose (berberine 24.03, epiberberine 2.47, coptisine 2.47, palmatine 6.09, jatrorrhizine 0.93, columbamine 1.98 mg/kg)
[19] = male rats, Day 28, high dose TAZF 3.7 g/kg by gavage
[20] = male rats, Day 28, highest dose (berberine 72.08, epiberberine 7.42, coptisine 7.42, palmatine 18.26, jatrorrhizine 2.80, columbamine 5.93 mg/kg)
[21] = male rats, Day 28, low dose TAZF 0.4 g/kg by gavage
[22] = male rats, Day 28, lowest dose (berberine 8.01, epiberberine 0.82, coptisine 1.38, palmatine 2.03, jatrorrhizine 0.31, columbamine 0.66 mg/kg)
[23] = male rats, Day 28, middle dose (berberine 24.03, epiberberine 2.47, coptisine 2.47, palmatine 6.09, jatrorrhizine 0.93, columbamine 1.98 mg/kg)

COc1cc2c(cc1OC)-c1cc3ccc4c(c3c[n+]1CC2)OCO4 [epiberberine]
28-day AUC relative to the first day ([1]; rat, in vivo): 1 to 2 times
Inhibition of CYP3A4, CYP1A2 and CYP2D6 [2]: inhibited

COc1cc2c(cc1OC)-c1cc3ccc(OC)c(OC)c3c[n+]1CC2 [palmatine]
AUC(0-t) [1, 4]: 38.00 ± 16.92 ng·h/mL
Cmax [1, 4]: 46.60 ± 27.16 ng/mL
Cmax mean [1, 5]: 46.60 ng/mL
T1/2 mean [1, 5]: 5.18 h
Tmax mean [1, 5]: 30 min
AUC(0-t) [1, 6]: 18.08 ± 4.07 ng·h/mL
Cmax [1, 6]: 27.93 ± 13.97 ng/mL
Cmax mean [1, 7]: 27.93 ng/mL
T1/2 mean [1, 7]: 5.96 h
Tmax mean [1, 7]: 25.2 min
AUC0-t mean [1, 8]: 90.31 ng·h/mL
Cmax mean [1, 8]: 77.60 ng/mL
T1/2 mean [1, 8]: 3.29 h
Tmax mean [1, 8]: 49.8 min
AUC(0-t) [1, 9]: 24.07 ± 12.21 ng·h/mL
Cmax [1, 9]: 5.67 ± 2.58 ng/mL
Cmax mean [1, 10]: 5.67 ng/mL
T1/2 mean [1, 10]: 3.98 h
Tmax mean [1, 10]: 49.8 min
AUC(0-t) [1, 11]: 116.47 ± 138.20 ng·h/mL
Cmax [1, 11]: 55.94 ± 72.88 ng/mL
Cmax mean [1, 12]: 55.94 ng/mL
T1/2 mean [1, 12]: 80.32 h
Tmax mean [1, 12]: 25.2 min
AUC0-t mean [1, 13]: 14.65 ng·h/mL
Cmax mean [1, 13]: 4.16 ng/mL
T1/2 mean [1, 13]: 9.33 h
Tmax mean [1, 13]: 79.8 min
AUC(0-t) [1, 14]: 342.51 ± 66.62 ng·h/mL
Cmax [1, 14]: 51.33 ± 17.52 ng/mL
Cmax mean [1, 15]: 51.33 ng/mL
T1/2 mean [1, 15]: 10.38 h
Tmax mean [1, 15]: 200 min
AUC(0-t) [1, 16]: 236.12 ± 103.55 ng·h/mL
Cmax [1, 16]: 52.47 ± 52.73 ng/mL
Cmax mean [1, 17]: 52.47 ng/mL
T1/2 mean [1, 17]: 12.88 h
Tmax mean [1, 17]: 200 min
AUC0-t mean [1, 18]: 318.68 ng·h/mL
Cmax mean [1, 18]: 71.53 ng/mL
T1/2 mean [1, 18]: 26.57 h
Tmax mean [1, 18]: 40.2 min
AUC(0-t) [1, 19]: 110.18 ± 34.30 ng·h/mL
Cmax [1, 19]: 32.93 ± 24.17 ng/mL
Cmax mean [1, 20]: 32.93 ng/mL
T1/2 mean [1, 20]: 11.01 h
Tmax mean [1, 20]: 245 min
AUC(0-t) [1, 21]: 36.98 ± 18.55 ng·h/mL
Cmax [1, 21]: 67.20 ± 74.82 ng/mL
Cmax mean [1, 22]: 67.20 ng/mL
T1/2 mean [1, 22]: 12.22 h
Tmax mean [1, 22]: 49.8 min
AUC0-t mean [1, 23]: 102.21 ng·h/mL
Cmax mean [1, 23]: 22.63 ng/mL
T1/2 mean [1, 23]: 2.90 h
Tmax mean [1, 23]: 720 min
Systemic exposure after 28 days of administration vs single administration ([1]; rats, oral TAZF): much lower
Metabolism by CYP3A4, CYP1A2 and CYP2D6 [3]: metabolized

O=c1c2ccccc2nc2n1CCc1c-2[nH]c2ccccc12 [rutaecarpine]
Level in plasma ([1]; both, SD, rat, in vivo, po): < 0.5 ng/mL
